Structures can show the parent of a compound that is named as a salt.
How the values were obtained:
[1] = test system: VEGF-induced endothelial recruitment; experiment: in vivo matrigel plug assay; set-up: species or system mouse; conditions: VEGF 400 ng/mL + 10 μg/mL
Description: 10 μg/mL recombinant human ApoE3 (4696, BioVision), 10 μg/mL BSA (A2153, Sigma Aldrich), or 400 ng/ml VEGF were mixed with matrigel (356231, BD Biosciences) as indicated. 400 μL of matrigel containing the indicated recombinant proteins were injected subcutaneously just above the ventral flank of immunocompromised NOD-SCID mice. Plugs were extracted on day 3 post-injection and fixed in 4% paraformaldehyde for 48 hours. Plugs were then paraffin-embedded and sectioned at 5-μm-thick increments. Plug cross-sectional sections were immunohistochemically stained using a primary antibody against the mouse endothelial antigen MECA-32 (Developmental Studies Hybridoma Bank, The University of Iowa, IA), detected by peroxidase-conjugated secondary antibody, and subsequently visualized by DAB oxidization. To quantify the extent of endothelial cell invasion into each matrigel plug, the number of endothelial cells was counted in 4-5 random fields for each plug, and the average number of endothelial cells per given plug area was calculated.

[2] = test system: breast cancer, renal cell cancer and pancreatic cancer cell lines; experiment: endothelial recruitment by other cancer types; assay type: cell-based, human
[3] = test system: B16F10 mouse melanoma cells; experiment: subcutaneous B16F10 tumor growth in mice; assay type: in vivo; conditions: chow 100 mg/kg
Description: First, the cells were treated with 500 μg/mL DTIC for one week. Following this initial DTIC treatment, the remaining (˜10%) viable cells were allowed to recover for one week, after which 750 μg/mL of DTIC was added to the cell media for 5 days. Subsequent to this high-dose treatment, the cells were allowed to recover in the presence of low-dose DTIC (100 μg/mL) for one week. The cells were then continuously cultured in cell media containing 200 μg/mL DTIC for at least one month prior to grafting the cells into mice. DTIC was added to fresh cancer cell media every 3 days. […] DTIC was dissolved in the presence of citric acid (1:1 by weight) in water and administered daily by intraperitoneal injection.

[4] = test system: Tyr::CreER; B-RafV600E/+; Ptenlox/+ and Ptenlox/lox mice; experiment: genetically-initiated model of melanoma progression; assay type: in vivo, mouse
Description: The Tyr::CreER; B-Raf^V600E/+; Pten^lox/+/Tyr::CreER; B-Raf^V600E/+; Pten^lox/lox conditional model of melanoma progression was previously established and characterized by Dankort et al. (2009). Briefly, melanoma in these mice was induced at 6 weeks of age by intraperitoneally injecting 4-HT (H6278, 70% isomer, Sigma-Aldrich, St Louis, Mo.) at 25 mg/kg administered in peanut oil on three consecutive days. The 4-HT stock solution was prepared by dissolving it in 100% EtOH at 50 mg/mL by heating at 45° C. for 5 min and mixing. Once dissolved, the stock 4-HT solution was then diluted by 10-fold in peanut oil, yielding a 5 mg/mL 4-HT working solution that was then injected into mice. After the first 4-HT injection, mice were blindedly assigned to receive either a control diet or a diet supplemented with GW3965 (100 mg/kg). Mice were examined three times a week for the presence and progression of melanoma lesions. At day 35, dorsal skin samples were harvested from control-treated and GW3965-treated mice, fixed in 4% PFA and photographed at 10×. The percentage of pigmented melanoma lesion area out of the total skin area was quantified using ImageJ. For survival analyses, mice were monitored daily for melanoma progression and euthanized according to a standard body condition score, taking into account initial signs of moribund state and discomfort associated with the progression of melanoma burden. Post-mortem, the lungs, brains, and salivary glands were harvested and examined for the presence of macroscopic melanoma lesions.

[5] = test system: MeWo human melanoma tumors; experiment: tumor histochemistry (MECA-32, Ki-67, cleaved caspase-3); assay type: in vivo, mouse
Source text: Animals were intracardially perfused with PBS followed by 4% paraformaldehyde (PFA). Fixed lungs were embedded in paraffin and sectioned into 5-μm-thick increments. Macroscopic lung metastatic nodules were visualized by H&E staining. For analysis of tumor endothelial cell content, proliferation, and apoptosis, primary tumor paraffin-embedded sections were stained with antibodies against MECA-32 (Developmental Studies Hybridoma Bank, University of Iowa), KI-67 (ab15580, Abcam), and cleaved caspase-3 (9661, Cell Signaling), respectively.
Tumors were excised from mice and fixed in 4% paraformaldehyde at 4° C. for 48 hours. Then, tumors were paraffin-embedded and sectioned into 5-μm-thick increments. For endothelial cell content analysis in tumors, tumor sections were stained with a primary antibody against the mouse endothelial cell marker MECA-32 (Developmental Studies Hybridoma Bank, The University of Iowa, IA) and counterstained with DAPI nuclear stain. To determine tumor cell proliferation and apoptosis, tumor sections were stained with antibodies against the proliferative marker Ki-67 (Abcam, ab15580, Cambridge, Mass.) and the apoptotic marker cleaved caspase-3 (9661, Cell Signaling, Danvers, Mass.), respectively. Various Alexa Flour dye-conjugated secondary antibodies were used to detect primary antibodies. […] Endothelial cell content density and tumor proliferation rate were quantified by calculating the average percentage of MECA-32 or Ki-67 positively-staining area out of the total tumor area. Tumor apoptosis was measured by counting the number of cleaved caspase-3 expressing cells per given tumor area.

Compound	suppression of VEGF-induced endothelial recruitment into subcutaneous matrigel plugs [1]	endothelial recruitment across breast, renal cell and pancreatic cancer [2]	suppression of tumor growth by DTIC-resistant B16F10 clone [3]	number of lymphatic metastases detected post-mortem ([4]; Ptenlox/lox mice, chow 100 mg/kg)	tumor progression ([4]; oral, diet 100 mg/kg after melanoma initiation)	overall survival times ([4]; oral, diet 100 mg/kg, Ptenlox/+ and Ptenlox/lox mice)	decrease in number of actively proliferating tumor cells in vivo ([5]; Ki-67) [%]	number of apoptotic cells ([5]; cleaved caspase-3)	reduction in endothelial cell content of tumors ([5]; diet 20 mg/kg, 35 days, MECA-32)
recombinant ApoE3: recombinant human ApoE3 (4696, BioVision)	greater than 40 fold	inhibited							
O=C(O)Cc1cccc(OCCCN(Cc2cccc(C(F)(F)F)c2Cl)CC(c2ccccc2)c2ccccc2)c1 [GW3965 2, 3-[3-[N-(2-Chloro-3-trifluoromethylbenzyl)-(2,2-diphenylethyl)amino]propyloxy] phenylacetic acid hydrochloride]			more than 70%	decrease	attenuated	significantly extended	23	without a change	roughly 2 fold
